The source of these data is patent US8119650B2, “Aminophenyl derivatives as novel inhibitors of histone deacetylase” (Janssen Pharmaceutica N.V., priority 2006, dated 2012).

≈ marks a conversion by molar mass, not a printed value. Where two headings read alike, the source gives them in different places.

The term solubility denotes the concentration that dissolves in the medium under given conditions.

Data set [1] concerns the target histone deacetylase (HeLa nuclear extracts). Nature of the data set: In vitro assay for inhibition of histone deacetylase with fluorescent-labelled substrate. Type of data set: biochemical. The note with it: Fluor de Lys substrate. The source says:
The in vitro assay for inhibition of histone deacetylase (see example C. 1) measures the inhibition of HDAC enzymatic activity obtained with the compounds of formula (I).
The HDAC Fluorescent Activity Assay/Drug Discovery Kit of Biomol (cat.No: AK-500-0001) was used. The HDAC Fluorescent Activity Assay is based on the Fluor de Lys (Fluorogenic Histone deAcetylase Lysyl) substrate and developer combination. The Fluor de Lys substrate, comprises an acetylated lysine side chain. Deacetylation of the substrate sensitizes the substrate so that, in the second step, treatment with the Fluor de Lys developer produces a fluorophore.
HeLa nuclear extracts (supplier: Biomol) were incubated at 60 μg/ml with 75 μM of substrate. The Fluor de Lys substrate was added in a buffer containing 25 mM Tris, 137 mM NaCl, 2.7 mM KCl and 1 mM MgCl2.6H2O at pH 7.4. After 30 min, 1 volume of the developer was added. The fluorophore was excited with 355 nm light and the emitted light (450 nm) was be detected on a fluorometric plate reader.
For each experiment, controls (containing HeLa nuclear extract and buffer), a blank incubation (containing buffer but no HeLa nuclear extract) and samples (containing compound dissolved in DMSO and further diluted in buffer and HeLa nuclear extract) were run in parallel. In first instance, compounds were tested at a concentration of 10^−5M. […] All sample were tested 4 times. In each test the blank value was substracted from both the control and the sample values. The control sample represented 100% of substrate deactylation. For each sample the fluorescence was expressed as a percentage of the mean value of the controls. […] Herein the effects of test compounds are expressed as pIC50 (the negative log value of the IC50-value) (see Table F-2).

The test system of data set [2] is A2780 ovarian carcinoma cells. Kind of data set: Antiproliferative activity on A2780 cells (MTT). The data set is classed as cell-based. To be noted: Homo sapiens, 96 h, four days of incubation, read-out: Cellular activity pIC50 C.2 (converted). How it is done:
Cellular activity of the compounds of formula (I) was determined on A2780 tumour cells using a […] assay for cell toxicity or survival (Mosmann Tim, Journal of Immunological Methods 65: 55-63, 1983)(see example C.2).
All compounds tested were dissolved in DMSO and further dilutions were made in culture medium. Final DMSO concentrations never exceeded 0.1% (v/v) in cell proliferation assays. Controls contained A2780 cells and DMSO without compound and blanks contained DMSO but no cells. MTT was dissolved at 5 mg/ml in PBS. A glycine buffer comprised of 0.1 M glycine and 0.1 M NaCl buffered to pH 10.5 with NaOH (1 N) was prepared (all reagents were from Merck).
The human A2780 ovarian carcinoma cells (a kind gift from Dr. T. C. Hamilton [Fox Chase Cancer Centre, Pennsylvania, USA]) were cultured in RPMI 1640 medium supplemented with 2 mM L-glutamine, 50 μg/ml gentamicin and 10% fetal calf serum. Cells were routinely kept as monolayer cultures at 37° C. in a humidified 5% CO2 atmosphere. Cells were passaged once a week using a trypsin/EDTA solution at a split ratio of 1:40. All media and supplements were obtained from Life Technologies. Cells were free of mycoplasma contamination as determined using the Gen-Probe Mycoplasma Tissue Culture kit (supplier: BioMérieux).
Cells were seeded in NUNC™ 96-well culture plates (Supplier: Life Technologies) and allowed to adhere to the plastic overnight. Densities used for plating were 1500 cells per well in a total volume of 200 μl medium. After cell adhesion to the plates, medium was changed and drugs and/or solvents were added to a final volume of 200 μL Following four days of incubation, medium was replaced by 200 μl fresh medium and cell density and viability was assessed using an MTT-based assay. […] For each sample, the mean value for cell growth (in absorbance units) was expressed as a percentage of the mean value for cell growth of the control. […] Herein the effects of test compounds are expressed as pIC50 (the negative log value of the IC50-value) (see Table F-2).

A short description of data set [3]: Solubility at pH 2.3 (chemiluminescent nitrogen detector). The data set is classed as physicochemical. The note with it: pH 2.3, aqueous buffer; read-out: Solubility C.3.b. pH = 2.3. How it is done: The solubility of a compound measures the ability of a compound to stay in solution. In a first method the ability of a compound to stay in aqueous solution upon dilution (see example C.3.a) is measured. DMSO-stock solutions are diluted with a single aqueous buffer solvent in different consecutive steps. In this method, mixtures are then scanned in the BD Gentest Solubility Scanner for the occurrence of precipitation. In a second method the solubility of a compound at different pH's can be measured with the use of a Chemiluminescent Nitrogen Detector (see example C.3.b).
The solubility of a compound, at pH 2.3, can also be measured with the use of a chemiluminescent nitrogen detector (see Table F-2).

Take `CCCn1cc(CNCC2CCN(c3ncc(C(=O)Nc4ccccc4N)cn3)CC2)c2cc(F)ccc21` [Compound 3]: in data set [1], the “Enzymatic activity pIC50 C.1” value is less than 6. In addition, in data set [2], the IC50 was 1580 nM. For the compound `Nc1ccccc1NC(=O)c1cnc(N2CCC(CNCCc3c[nH]c4ccccc34)CC2)nc1` [Compound 4], the “Enzymatic activity pIC50 C.1” value in data set [1] is less than 6. Regarding `Cn1cc(CNCC2CCN(c3ncc(C(=O)Nc4ccccc4N)cn3)CC2)c2ccccc21` [Compound 2], the “Enzymatic activity pIC50 C.1” value in data set [1] is reported as 4.8. Further, the solubility in data set [3] was 3700 µg/mL (≈ 7.88 mM). For the same compound, in data set [2], the IC50 is 100 nM.

For the compound `CCCO` [propanol], the “% metabolism” value (15 min incubation with microsomes, compound 5 μM) was found to be 25%. As to `CS(=O)(=O)N(CCc1c[nH]c2ccccc12)CC1CCN(c2ncc(C(=O)Nc3ccccc3N)cn2)CC1` [Compound 5], in data set [1], the “Enzymatic activity pIC50 C.1” value is listed as less than 6. In the case of `COc1cc(N)c(Cl)cc1C(=O)NC1CCN(CCCOc2ccc(F)cc2)CC1OC` (centres unmarked) [Cisapride], the “% metabolism” value (human, 15 min, 5 μM) worked out at 45%.

As to `CCCn1cc(CCNCC2CCN(c3ncc(C(=O)Nc4ccccc4N)cn3)CC2)c2cc(Cl)ccc21` [Compound 1], the “Enzymatic activity pIC50 C.1” value in data set [1] is on record as less than 6. Further, the IC50 in data set [2] was 3160 nM.
